Source: ChEMBL document CHEMBL3351471, “Antileishmanial metabolites from Geosmithia langdonii” (J Nat Prod, 2014)

Assays:
Assay type in all cases: functional, organism-based
Staphylococcus aureus [1] = assay: Antimicrobial activity against methicillin-resistant Staphylococcus aureus ATCC 33591
Staphylococcus aureus [2] = assay: Antimicrobial activity against Staphylococcus aureus ATCC 29213
Leishmania donovani = assay: Antileishmanial activity against promastigote forms of Leishmania donovani by alamar blue assay

Compound	IC50 (Staphylococcus aureus [1])	IC50 (Staphylococcus aureus [2])	IC50 (Leishmania donovani)	IC90 (Leishmania donovani)
Cc1ccc(O)c(O)c1	72.9 µM	148 µM		
O=Cc1cc(O)ccc1O			3.3 µM	6.1 µM
OCc1cc(O)cc(O)c1Cc1ccc(O)c(O)c1			13 µM	22 µM
CC1=C[C@H](O)[C@H]2O[C@H]2C1=O			6.9 µM	10.8 µM
OCc1cccc(O)c1			34 µM	52.3 µM
CC1=C[C@@H](O)[C@H](O)CC1=O (single isomer, unassigned)			47.3 µM	61 µM
C[C@@H]1[C@H](O)[C@@H](C)/C=C/C=C/C=C/C=C/C=C/C=C/C=C/[C@H](O[C@@H]2O[C@H](C)[C@@H](O)[C@H](N)[C@@H]2O)C[C@@H]2O[C@](O)(C[C@@H](O)C[C@@H](O)[C@H](O)CC[C@@H](O)C[C@@H](O)CC(=O)O[C@H]1C)C[C@H](O)[C@H]2C(=O)O [AMPHOTERICIN B]				0.4 µM
OCc1cc(O)ccc1O [GENTISYL ALCOHOL]			8.5 µM	10.4 µM
Cc1cccc(O)c1 [METACRESOL]			9.2 µM	12.4 µM
N=C(N)c1ccc(OCCCCCOc2ccc(C(=N)N)cc2)cc1 [PENTAMIDINE]			3.2 µM	5.9 µM
